Assay results from EP4603105A1, “PHARMACEUTICAL COMPOSITION CONTAINING CYCLIC COMPOUND HAVING SELECTIVE KRAS INHIBITORY EFFECT AGAINST HRAS AND NRAS” (CHUGAI SEIYAKU KABUSHIKI KAISHA, priority 2022, dated 2024).

Columns and labels:
HRAS wild-type protein = HRAS wild-type protein (Homo sapiens, UniProt P01112); assay: Binding to HRAS by surface plasmon resonance (SPR), KD and KD ratio to KRAS; conditions: ratio of KD value for HRAS wild-type protein to KD value for KRAS (SPR)
Procedure, shortened: (§1)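 Captured GDP-RAS (~100–300 RU) was exposed to increasing compound concentrations, 75 s per step, in running buffer with 10 µM GDP, 10 mM MgCl2 and 4% DMSO at pH 7.4.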

[1] = biological target: GDP-bound KRAS wild-type protein (Homo sapiens, UniProt P01116); assay: Binding to KRAS by surface plasmon resonance (SPR), dissociation constant KD; conditions: Single Cycle Kinetics, 1:1 binding model
Sequence of GDP-bound KRAS wild-type protein (P01116 1-188 isoform P01116-2): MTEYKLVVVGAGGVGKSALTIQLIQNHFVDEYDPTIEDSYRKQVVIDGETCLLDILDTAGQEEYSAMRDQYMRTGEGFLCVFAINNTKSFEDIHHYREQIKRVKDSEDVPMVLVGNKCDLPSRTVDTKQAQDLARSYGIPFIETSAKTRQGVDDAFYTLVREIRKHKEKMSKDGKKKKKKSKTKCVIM
Procedure, shortened: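 SPR, 30°C: Avi-biotin RAS·GDP captured via Biotin CAPture (~100–300 RU); running buffer HBS pH 7.4, 1 mM DTT, 10 mM MgCl2, 0.01% Tween 20, 10 µM GDP, 4% DMSO. Single-cycle kinetics, 100 µL/min, 75 s injections; 1:1 model → KD.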

[2] = biological target: GDP-bound NRAS wild-type protein (Homo sapiens, UniProt P01111); assay: Binding to NRAS by surface plasmon resonance (SPR), KD and KD ratio to KRAS; conditions: ratio of KD value for GDP-bound NRAS wild-type protein to KD value for KRAS (SPR)
Sequence of GDP-bound NRAS wild-type protein (P01111 whole entry): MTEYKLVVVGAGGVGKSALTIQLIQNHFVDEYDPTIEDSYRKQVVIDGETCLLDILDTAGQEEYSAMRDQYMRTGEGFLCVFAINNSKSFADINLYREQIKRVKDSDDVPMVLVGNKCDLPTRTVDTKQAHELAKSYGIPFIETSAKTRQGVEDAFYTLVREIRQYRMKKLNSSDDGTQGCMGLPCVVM
Procedure, shortened: as §1

[3] = test system: human lung cancer strain NCI-H441; type: cell-based
Procedure, shortened: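 Step one: dispense the test compound in serial DMSO dilutions. Step three: add the reagent and measure […].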

Sequence of HRAS wild-type protein (P01112 whole entry): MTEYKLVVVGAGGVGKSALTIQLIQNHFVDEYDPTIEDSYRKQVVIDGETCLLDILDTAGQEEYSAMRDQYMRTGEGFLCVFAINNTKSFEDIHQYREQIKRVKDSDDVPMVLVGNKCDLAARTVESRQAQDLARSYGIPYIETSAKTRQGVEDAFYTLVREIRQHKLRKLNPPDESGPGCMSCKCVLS

| SMILES | HRAS /KRAS (HRAS wild-type protein) | Kd [1] [nM] | NRAS /KRAS [2] | IC50 [3] [nM] |
| --- | --- | --- | --- | --- |
| CCO[C@@H]1C[C@H]2C(=O)NC3(CCC3)C(=O)N(C)[C@@H](C(CC)CC)C(=O)N(C)[C@H](C)CC(=O)N(C)[C@@H](CC(C)C)C(=O)N[C@@H]([C@@H](C)CC)C(=O)N(C)CC(=O)N(C)[C@H]3C/C=C\CCN(C3=O)[C@@H](Cc3ccc(F)cc3)C(=O)N(C)CC(=O)N[C@@H](CCc3cc(F)c(C(F)(F)F)c(F)c3)C(=O)N2C1 [PP1525] | A (a compound having 10 or more and less than 20 is denoted as A) | 1.7 | A (a compound having 10 or more and less than 20 is denoted as A) | 132 |
| CCO[C@@H]1C[C@H]2C(=O)NC3(CCC3)C(=O)N(C)[C@@H](C(CC)CC)C(=O)N(C)[C@H](C(=O)N3CCOCC3)CC(=O)N(C)[C@@H](CC3CC3)C(=O)N[C@@H]([C@@H](C)CC)C(=O)N(C)CC(=O)N(C)[C@H]3C/C=C\CCN(C3=O)[C@@H](Cc3ccc(F)cc3)C(=O)N(C)CC(=O)N[C@@H](CCc3cc(F)c(C(F)(F)F)c(F)c3)C(=O)N2C1 [PP1527] | A (a compound having 10 or more and less than 20 is denoted as A) | 0.95 | A (a compound having 10 or more and less than 20 is denoted as A) | 143 |
| CCO[C@@H]1C[C@H]2C(=O)NC3(CCC3)C(=O)N(C)[C@@H](C3CCCC3)C(=O)N(C)[C@H](C(=O)N(C)C)CC(=O)N(C)[C@@H](CC3CC3)C(=O)N[C@@H]([C@@H](C)CC)C(=O)N(C)CC(=O)N(C)[C@H]3C/C=C\CCN(C3=O)[C@@H](Cc3ccc(F)cc3C)C(=O)N(C)CC(=O)N[C@@H](CCc3cc(F)c(C(F)(F)F)c(F)c3)C(=O)N2C1 [PP1528] | B (a compound having 3 or more and less than 10 is denoted as B) | 0.2 | A (a compound having 10 or more and less than 20 is denoted as A) | 45.6 |
| C=CCCCCN(C)C(=O)[C@@H]1CC(=O)N(C)[C@@H](CC2CC2)C(=O)N[C@@H](CC=C)C(=O)N(C)CC(=O)N(C)[C@H]2C/C=C\CCN(C2=O)[C@@H](Cc2ccc(C(F)(F)F)cc2)C(=O)N(C)CC(=O)N[C@@H](CCc2cc(F)c(C(F)(F)F)c(F)c2)C(=O)N2C[C@H](OCC)C[C@H]2C(=O)NC2(CCC2)C(=O)N(C)[C@@H](C2CCCC2)C(=O)N1C [PP1554] | A (a compound having 10 or more and less than 20 is denoted as A) | 2.7 | A (a compound having 10 or more and less than 20 is denoted as A) | 121 |
| C=CC[C@@H]1NC(=O)[C@H](CC2CC2)N(C)C(=O)C[C@@H](C(=O)N(C)CC=C)N(C)C(=O)[C@H](C2CCCC2)N(C)C(=O)C2(CCC2)NC(=O)[C@@H]2C[C@@H](OCC)CN2C(=O)[C@H](CCc2cc(F)c(C(F)(F)F)c(F)c2)NC(=O)CN(C)C(=O)[C@H](Cc2ccc(C(F)(F)F)cc2)N2CC/C=C\C[C@@H](C2=O)N(C)C(=O)CN(C)C1=O [PP1557] | A (a compound having 10 or more and less than 20 is denoted as A) | 1.2 | A (a compound having 10 or more and less than 20 is denoted as A) | 86.3 |
| CCO[C@@H]1C[C@H]2C(=O)NC3(CC(C)(C)C3)C(=O)N(C)[C@@H](C3CCCC3)C(=O)N(C)[C@H](C(=O)N(C)C)CC(=O)N(C)[C@@H](CC3CCCC3)C(=O)N[C@@H]([C@@H](C)CC)C(=O)N(C)CC(=O)N(C)[C@H]3C/C=C\CCN(C3=O)[C@@H](Cc3ccc(C(F)(F)F)cc3)C(=O)N(C)CC(=O)N[C@@H](CCc3ccc(C(F)(F)F)c(OC)c3)C(=O)N2C1 [PP1565] | B (a compound having 3 or more and less than 10 is denoted as B) | 0.11 | A (a compound having 10 or more and less than 20 is denoted as A) | 6.5 |
| CCO[C@@H]1C[C@H]2C(=O)NC3(CCC3)C(=O)N(C)[C@@H](C3CCCC3)C(=O)N(C)[C@H](C(=O)N(C)CC)CC(=O)N(C)[C@@H](CC3CCCC3)C(=O)N[C@@H]([C@@H](C)CC)C(=O)N(C)CC(=O)N(C)[C@H]3C/C=C\CCN(C3=O)[C@@H](Cc3ccc(C(F)(F)F)cc3)C(=O)N(C)CC(=O)N[C@@H](CCc3ccc(C(F)(F)F)c(OC)c3)C(=O)N2C1 [PP1573] | A (a compound having 10 or more and less than 20 is denoted as A) | 0.12 | A (a compound having 10 or more and less than 20 is denoted as A) | 5.2 |
| CCCC[C@H]1C(=O)N[C@@H]([C@@H](C)CC)C(=O)N(C)CC(=O)N(C)[C@H]2C/C=C\CCN(C2=O)[C@@H](Cc2ccc(C(F)(F)F)cc2)C(=O)N(C)CC(=O)N[C@@H](CCc2cc(F)c(C(F)(F)F)c(F)c2)C(=O)N2C[C@H](OCC)C[C@H]2C(=O)NC2(CCC2)C(=O)N(C)[C@@H](C2CCCC2)C(=O)N(C)[C@H](C(=O)N(CC)CC)CC(=O)N1C [PP1576] | A (a compound having 10 or more and less than 20 is denoted as A) | 0.14 | AA (a compound having 20 or more is denoted as AA) | 7.6 |
| CCCOC[C@H]1C(=O)N[C@@H]([C@@H](C)CC)C(=O)N(C)CC(=O)N(C)[C@H]2C/C=C\CCN(C2=O)[C@@H](Cc2ccc(C)cc2)C(=O)N(C)CC(=O)N[C@@H](CCc2cc(F)c(C(F)(F)F)c(F)c2)C(=O)N2C[C@H](OCC)C[C@H]2C(=O)NC2(CC(C)(C)C2)C(=O)N(C)[C@@H](C2CCCC2)C(=O)N(C)[C@H](C(=O)N(C)CC)CC(=O)N1C [PP1577] | B (a compound having 3 or more and less than 10 is denoted as B) | 0.17 | B (a compound having 3 or more and less than 10 is denoted as B) | 6.7 |
| CCCOC[C@H]1C(=O)N[C@@H]([C@@H](C)CC)C(=O)N(C)CC(=O)N(C)[C@H]2C/C=C\CCN(C2=O)[C@@H](Cc2ccc(C)cc2)C(=O)N(C)CC(=O)N[C@@H](CCc2cc(F)c(C(F)(F)F)c(F)c2)C(=O)N2C[C@H](OCC)C[C@H]2C(=O)NC2(CC(C)(C)C2)C(=O)N(C)[C@@H](C2CCCC2)C(=O)N(C)[C@H](C(=O)N(CC)CC)CC(=O)N1C [PP1578] | A (a compound having 10 or more and less than 20 is denoted as A) | 0.2 | A (a compound having 10 or more and less than 20 is denoted as A) | 12.6 |
| CCO[C@@H]1C[C@H]2C(=O)NC3(CC(C)(C)C3)C(=O)N(C)[C@@H](C3CCCC3)C(=O)N(C)[C@@H](C(C)C)CC(=O)N(C)[C@@H](CC3CC3)C(=O)N[C@@H]([C@@H](C)CC)C(=O)N(C)CC(=O)N(C)[C@H]3C/C=C\CCN(C3=O)[C@@H](Cc3ccc(C(F)(F)F)cc3)C(=O)N(C)CC(=O)N[C@@H](CCc3cc(F)c(C(F)(F)F)c(F)c3)C(=O)N2C1 [PP1594] | A (a compound having 10 or more and less than 20 is denoted as A) | 0.71 | A (a compound having 10 or more and less than 20 is denoted as A) | 48.8 |
| CCO[C@@H]1C[C@H]2C(=O)NC3(CCC3)C(=O)N(C)[C@@H](C(CC)CC)C(=O)N(C)[C@H](C3CCC3)CC(=O)N(C)[C@@H](CC3CC3)C(=O)N[C@@H]([C@@H](C)CC)C(=O)N(C)CC(=O)N(C)[C@H]3C/C=C\CCN(C3=O)[C@@H](Cc3ccc(C(F)(F)F)cc3)C(=O)N(C)CC(=O)N[C@@H](CCc3cc(F)c(C(F)(F)F)c(F)c3)C(=O)N2C1 [PP1636] | A (a compound having 10 or more and less than 20 is denoted as A) | 2.8 | A (a compound having 10 or more and less than 20 is denoted as A) | 95.2 |
| CCCN(C)C(=O)[C@@H]1CC(=O)N(C)[C@@H](CC)C(=O)N[C@@H]([C@@H](C)CC)C(=O)N(C)CC(=O)N(C)[C@H]2C/C=C\CCN(C2=O)[C@@H](Cc2ccc(C(F)(F)F)cc2)C(=O)N(C)CC(=O)N[C@@H](CCc2ccc(C(F)(F)F)c(OC)c2)C(=O)N2C[C@H](OCC)C[C@H]2C(=O)NC2(CC(C)(C)C2)C(=O)N(C)[C@@H](C2CCCC2)C(=O)N1C [PP1654] | A (a compound having 10 or more and less than 20 is denoted as A) | 0.097 | A (a compound having 10 or more and less than 20 is denoted as A) | 2.5 |
| CCO[C@@H]1C[C@H]2C(=O)NC3(CCC3)C(=O)N(C)[C@@H](C3CCCC3)C(=O)N(C)[C@H](C(=O)N(C)CC)CC(=O)N(C)[C@@H](CC3CCC3)C(=O)N[C@@H]([C@@H](C)CC)C(=O)N(C)CC(=O)N(C)[C@H]3C/C=C\CCN(C3=O)[C@@H](Cc3ccc(C(F)(F)F)cc3)C(=O)N(C)CC(=O)N[C@@H](CCc3cc(F)c(C(F)(F)F)c(F)c3)C(=O)N2C1 [PP1667] | A (a compound having 10 or more and less than 20 is denoted as A) | 0.081 | A (a compound having 10 or more and less than 20 is denoted as A) | 2 |
